Test [1] relates to GP2D (KRAS G12D). The experiment in a line: Cell proliferation assay (CellTiter-Glo, 72 hours), GP2D. In kind it is cell-based. The following applies: GP2d, 72 h, 384-well, CellTiter-Glo 2.0. On the procedure: (§1) Two thousand KRAS mutant cells per well were seeded in 384-well white plate and then treated with indicated compounds for 72 hours at 37° C. and 5% CO2. Cell proliferation was measured using CellTiter-Glo 2.0 luciferase-based ATP detection assay (Promega, Madison, WI) following the manufacturer's protocol. IC50 values were determined using Prism software (GraphPad Software, San Diego, CA).

Test [2] relates to SW620 (KRAS G12V). The experiment in a line: Cell proliferation assay (CellTiter-Glo, 72 hours), SW620. Format: cell-based. As to conditions: Homo sapiens, SW-620, 72 h, 384-well, CellTiter-Glo 2.0. As to the method:
as §1
(Cellular ATP, detected with luciferase, serves as a proxy for viable cell number.)

The next test concerns AGS (G12D). Put plainly: Cell proliferation assay (CellTiter-Glo, 72 hours), AGS. In kind it is cell-based. As to conditions: 72 h, 384-well, CellTiter-Glo 2.0. As to the method: as §1
Test [3] concerns GP2D (KRAS G12D). Put plainly: Cell proliferation assay Method B (5 days), GP2D. Format: cell-based. As to conditions: 120 h, 96-well, read-out: Anti-Cell Proliferation IC50 (nM), GP2D. As to the method:
(§2) Method B: Two thousand KRAS mutant cells per well were seeded in 96-well black plate and then treated with indicated compounds for 5 days at 37° C. and 5% CO2. Cell proliferation was measured using CellTiter-Glo 2.0 luciferase-based ATP detection assay (Promega, Madison, WI) following the manufacturer's protocol. IC50 values were determined using Prism software (GraphPad Software, San Diego, CA).

The test system of the next test is AGS (KRAS G12D). The experiment in a line: Cell proliferation assay Method B (5 days), AGS. As to conditions: 120 h, 96-well, read-out: Anti-Cell Proliferation IC50 (nM), AGS. Format: cell-based. As to the method:
as §2

Another test relates to HPAC (KRAS G12D). Put plainly: Cell proliferation assay Method B (5 days), HPAC. In kind it is cell-based. As to conditions: Homo sapiens, 120 h, 96-well, read-out: Anti-Cell Proliferation IC50 (nM), HPAC. As to the method: as §2
For the next test, the system named is AsPC1 (KRAS G12D). Put plainly: Cell proliferation assay Method B (5 days), AsPC1. In kind it is cell-based. The following applies: Homo sapiens, ASPC1, 120 h, 96-well, read-out: Anti-Cell Proliferation IC50 (nM), AsPC1. As to the method: as §2
The next test deals with PANC0403 (KRAS G12D). Put plainly: Cell proliferation assay Method B (5 days), PANC0403. Format: cell-based. The following applies: Homo sapiens, Panc 04.03, 120 h, 96-well, read-out: Anti-Cell Proliferation IC50 (nM), PANC0403. On the procedure: as §2
A further test relates to PANC0504 (KRAS G12D). The experiment in a line: Cell proliferation assay Method B (5 days), PANC0504. Format: cell-based. As to conditions: Panc 05.04, 120 h, 96-well, read-out: Anti-Cell Proliferation IC50 (nM), PANC0504. On the procedure: as §2
In a further test the test system is H23 (KRAS G12C). The experiment in a line: Cell proliferation assay Method B (5 days), H23. Format: cell-based. As to conditions: 120 h, 96-well, read-out: Anti-Cell Proliferation IC50 (nM), H23. On the procedure: as §2
The test system of another test is H358 (KRAS G12C). The experiment in a line: Cell proliferation assay Method B (5 days), H358. In kind it is cell-based. The following applies: Homo sapiens, NCI-H358, 120 h, 96-well, read-out: Anti-Cell Proliferation IC50 (nM), H358. On the procedure:
as §2

The next test deals with MiaPaCa2 (KRAS G12C). The experiment in a line: Cell proliferation assay Method B (5 days), MiaPaCa2. Format: cell-based. The following applies: Homo sapiens, MIA PaCa-2, 120 h, 96-well, read-out: Anti-Cell Proliferation IC50 (nM), MiaPaCa2. On the procedure: as §2
For test [4], the system named is SW620 (KRAS G12V). The experiment in a line: Cell proliferation assay Method B (5 days), SW620. Format: cell-based. As to conditions: Homo sapiens, SW-620, 120 h, 96-well, read-out: Anti-Cell Proliferation IC50 (nM), SW620. On the procedure:
as §2

Another test concerns CAPAN-2 (KRAS G12V). The experiment in a line: Cell proliferation assay Method B (5 days), CAPAN-2. In kind it is cell-based. As to conditions: Homo sapiens, Capan-2, 120 h, 96-well, read-out: Anti-Cell Proliferation IC50 (nM), CAPAN-2. As to the method: as §2
For a further test, the system named is H2291 (KRAS G12F). The experiment in a line: Cell proliferation assay Method B (5 days), H2291. In kind it is cell-based. As to conditions: Homo sapiens, NCI-H2291, 120 h, 96-well, read-out: Anti-Cell Proliferation IC50 (nM), H2291. As to the method: as §2
For the next test, the system named is HCT116 (KRAS G13D). The experiment in a line: Cell proliferation assay Method B (5 days), HCT116. In kind it is cell-based. The following applies: Homo sapiens, HCT-116, 120 h, 96-well, read-out: Anti-Cell Proliferation IC50 (nM), HCT116. On the procedure:
as §2

Test [5] relates to Phospho-ERK in AGS (KRAS G12D) cells. Put plainly: Kinase phosphorylation assay (Phospho-ERK), AGS. Format: cell-based. The following applies: 3 hours treatment, normalized to β-actin, read-out: pERK ½ IC50 (nM), AGS. On the procedure:
(§3) KRAS mutant cells were plated in clear bottom 96 well plates at a density of 50,000-120,000 cells per well. Cells were allowed to attach overnight and then treated with compounds for 3 hours. After treatment, cells were fixed with 10% buffered formalin for 20 minutes at room temperature, washed with PBS, and then permeabilized with ice cold 100% methanol for 10 minutes to overnight at −20° C. Odyssey Blocking Buffer (LiCOR Biosciences: 927-60001) was added to each well for 1 hour at room temperature prior to incubation with primary antibodies overnight at 4° C. The primary antibodies used were as follows: Phospho-ERK (Cell Signaling: CS-9101) diluted to 1:250 and […] (Cell Signaling: CS-3700) diluted to 1:2000 in Odyssey Blocking Buffer+0.05% Tween20. Plates were washed 3× with Wash Buffer (PBS+0.1% Tween20) and incubated with secondary antibodies for 2 hours at room temperature. The following secondary antibodies were used: goat anti-rabbit-800 (LI-COR: 926-32211) and goat anti-mouse-680 (LICOR: 926-68070) both diluted to 1:2000 in Odyssey Blocking Buffer+0.05% Tween20. […] Phospho-ERK signal was normalized to β-actin signal for each well and the percent of DMSO control values were calculated. IC50 values were calculated using the sigmoidal dose-response (variable slope) equation in GraphPad Prism 4.

Test [6] relates to Phospho-ERK in SW620 (KRAS G12V) cells. Put plainly: Kinase phosphorylation assay (Phospho-ERK), SW620. In kind it is cell-based. As to conditions: Homo sapiens, SW-620, 3 hours treatment, normalized to β-actin, read-out: pERK ½ IC50 (nM), SW620. On the procedure:
as §3

Test [7] concerns Phospho-ERK in H2291 (KRAS G12F) cells. Put plainly: Kinase phosphorylation assay (Phospho-ERK), H2291. Format: cell-based. The following applies: Homo sapiens, NCI-H2291, 3 hours treatment, normalized to β-actin, read-out: pERK ½ IC50 (nM), H2291. On the procedure:
as §3

Test [8] relates to Phospho-ERK in HCT116 (KRAS G13D) cells. The experiment in a line: Kinase phosphorylation assay (Phospho-ERK), HCT116. In kind it is cell-based. As to conditions: Homo sapiens, HCT-116, 3 hours treatment, normalized to β-actin, read-out: pERK ½ IC50 (nM), HCT116. As to the method: as §3
For a further test, the target named is KRAS G12D (Homo sapiens, UniProt P01116, G12D). The experiment in a line: biochemical.
The target of the next test is KRAS G12V (Homo sapiens, UniProt P01116, G12V). Put plainly: biochemical.
Sequence of KRAS G12V (P01116 1-188 isoform P01116-2 G12V): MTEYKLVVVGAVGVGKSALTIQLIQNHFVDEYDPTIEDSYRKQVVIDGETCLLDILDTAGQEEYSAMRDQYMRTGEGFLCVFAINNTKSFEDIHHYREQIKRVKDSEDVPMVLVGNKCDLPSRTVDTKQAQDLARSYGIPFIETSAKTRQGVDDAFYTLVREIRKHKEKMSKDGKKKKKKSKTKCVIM

Sequence of KRAS G12D (P01116 1-188 isoform P01116-2 G12D): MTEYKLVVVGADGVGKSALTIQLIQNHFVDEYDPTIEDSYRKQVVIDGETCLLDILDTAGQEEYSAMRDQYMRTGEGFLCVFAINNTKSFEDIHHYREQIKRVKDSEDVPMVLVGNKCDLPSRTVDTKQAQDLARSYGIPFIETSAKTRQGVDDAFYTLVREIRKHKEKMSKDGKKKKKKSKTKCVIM

As to `C#Cc1c(F)ccc2cc(O)cc(-c3nc4c5c(nc(OC[C@@]67CCCN6C[C@H](F)C7)nc5c3F)N3CCCC[C@H]3CO4)c12` [compound 1, 5-ethynyl-6-fluoro-4-((S)-4-fluoro-2-(((2R,7aS)-2-fluorotetrahydro-1H-pyrrolizin-7a(5H)-yl)methoxy)-8,8a,9,10,11,12-hexahydro-7-oxa-1,3,6,12a-tetraazabenzo[4,5]cyclohepta[1,2,3-de]naphthalen-5-yl)naphthalen-2-ol], the IC50 in the test with GP2D (KRAS G12D) [1] stood at 2.51 nM; in the test with SW620 (KRAS G12V) [2], 10.4 nM; in the test with AGS (G12D), 6.9 nM; with GP2D (KRAS G12D) [3], 2.8 nM; with AGS (KRAS G12D) it was 14.8 nM; with HPAC (KRAS G12D), 18.9 nM. In addition, the IC50 was 108 nM in the test with AsPC1 (KRAS G12D); 27.7 nM in the test on PANC0403 (KRAS G12D); 9 nM with PANC0504 (KRAS G12D); 47.4 nM in the test on H23 (KRAS G12C); 49.2 nM in the test on H358 (KRAS G12C); 15.2 nM with MiaPaCa2 (KRAS G12C). Also, the IC50 in the test on SW620 (KRAS G12V) [4] amounted to 9.6 nM; in the test with CAPAN-2 (KRAS G12V) it was 35.2 nM; in the test with H2291 (KRAS G12F), 5.7 nM; with HCT116 (KRAS G13D), 474 nM; in test [5] it was 3.46 nM; in [6], 3.24 nM. The IC50 is 4.29 nM in test [7] and 14.1 nM in [8].

With `CCc1c(F)ccc2cc(O)cc(-c3nc4c5c(nc(OC[C@@]67CCCN6C[C@H](F)C7)nc5c3F)N3CCCC[C@H]3CO4)c12` [compound 2, 5-ethyl-6-fluoro-4-[(8aS)-4-fluoro-2-{[(2R,7aS)-2-fluorotetrahydro-1H-pyrrolizin-7a(5H)-yl]methoxy}-8,8a,9,10,11,12-hexahydro-7-oxa-1,3,6,12a-tetraazabenzo[4,5]cyclohepta[1,2,3-de]naphthalen-5-yl]naphthalen-2-ol], the IC50 with GP2D (KRAS G12D) [1] is 17.2 nM; with SW620 (KRAS G12V) [2], 41.4 nM; in the test on AGS (G12D) it was 52.3 nM; in the test on GP2D (KRAS G12D) [3] it was 11.3 nM; in the test with AGS (KRAS G12D), 86.2 nM; in the test on HPAC (KRAS G12D) it was 94.5 nM. The IC50 in the test on AsPC1 (KRAS G12D) worked out at 213 nM; in the test on PANC0403 (KRAS G12D) it was 76.7 nM; with PANC0504 (KRAS G12D), 44 nM; in the test on H23 (KRAS G12C) it was 145 nM; in the test with H358 (KRAS G12C), 222 nM; in the test with MiaPaCa2 (KRAS G12C), 68.1 nM. In addition, the IC50 in the test on SW620 (KRAS G12V) [4] is 43.8 nM; with CAPAN-2 (KRAS G12V), 60.2 nM; in the test on H2291 (KRAS G12F), 37.2 nM; with HCT116 (KRAS G13D), more than 3000 nM; in test [5] it was 19.6 nM; in [6], 22.1 nM. Besides, the IC50 in test [7] was determined as 65 nM; in [8] it was 93.4 nM; against KRAS G12D, 3.96 nM; against KRAS G12V, 1.83 nM.

With `C#Cc1c(F)ccc2cc(F)cc(-c3nc4c5c(nc(OC[C@@]67CCCN6C[C@H](F)C7)nc5c3F)N3CCCC[C@H]3CO4)c12` [Example 89, (7S)-12-(8-ethynyl-3,7-difluoro-1-naphthyl)-13-fluoro-16-[[(2R,8S)-2-fluoro-1,2,3,5,6,7-hexahydropyrrolizin-8-yl]methoxy]-9-oxa-2,11,15,17-tetrazatetracyclo[8.7.1.02,7.014,18]octadeca-1 (17),10 (18),11,13,15-pentaene], the IC50 was 1170 nM with GP2D (KRAS G12D) [1]; more than 3000 nM in the test on SW620 (KRAS G12V) [2]; more than 3000 nM with AGS (G12D); 3.93 nM against KRAS G12D; 4.2 nM at KRAS G12V.
